How the values were obtained:
HT-22 = assay: Cytotoxicity against mouse HT-22 cells assessed as cell viability at 1.25 to 5 uM incubated for 24 hrs by CCK8 assay; format: toxicity, cell-based; details: ht-22, 24 h, dose 1.25-5 µM
N2a [1] = assay: Induction of neuronal differentiation in mouse Neuro2a cells assessed as neurite formation at 5 uM incubated for 48 hrs by DAPI staining based fluorescence microscopic analysis; format: functional, cell-based
N2a [2] = assay: Induction of neuronal differentiation in mouse Neuro2a cells assessed as neurite elongation at 5 uM incubated for 48 hrs by DAPI staining based fluorescence microscopic analysis; format: functional, cell-based
N2a [3] = assay: Cytotoxicity against mouse Neuro2a cells assessed as cell viability at 1.25 to 5 uM incubated for 24 hrs by CCK8 assay; format: toxicity, cell-based; details: dose 1.25-5 µM

Compound | Activity (HT-22) | other results
O=c1c(O[C@@H]2O[C@H](CO)[C@@H](O)[C@H](O)[C@H]2O)c(-c2ccc(O)c(O)c2)oc2cc(O)cc(O)c12 [ISOQUERCETIN] | Non-toxic | Activity (N2a [1]): Active; Significant Efficacy Observed; Activity (N2a [2]): Active; Significant Efficacy Observed; Activity (N2a [3]): Toxic
O=c1cc(-c2ccccc2)oc2cc(O[C@@H]3O[C@H](CO[C@@H]4O[C@H](CO)[C@@H](O)[C@H](O)[C@H]4O)[C@@H](O)[C@H](O)[C@H]3O)c(O)c(O)c12 | Non-toxic | –
COc1cc([C@H](O)[C@H](CO)Oc2c(OC)cc([C@H](O)[C@H](O)CO)cc2OC)ccc1O (mixture of isomers) | Non-toxic | –
O[C@H]1CC[C@H]2CN3CCc4c([nH]c5ccccc45)[C@@H]3C[C@@H]2C1 | Non-toxic | –
C=C[C@H]1[C@H](O[C@@H]2O[C@H](CO)[C@@H](O)[C@H](O)[C@H]2O)OC=C(C(=O)O)[C@H]1CC(=O)O | Non-toxic | –
O=C(O)[C@H]1O[C@@H](O[C@@H]2[C@@H](O)[C@H](O)[C@@H](CO)O[C@H]2c2c(O)cc3oc(-c4ccc(O)c(O)c4)cc(=O)c3c2O)[C@H](O)[C@@H](O)[C@H]1O | Non-toxic | –
CC1=CC(=O)C[C@](C)(CO[C@@H]2O[C@H](CO)[C@@H](O)[C@H](O)[C@H]2O)[C@@]1(O)/C=C/C(C)=C/C(=O)O | Non-toxic | –
COc1cc([C@@H]2Oc3c(OC)cc(CCCO[C@@H]4O[C@H](CO)[C@@H](O)[C@H](O)[C@H]4O)cc3[C@H]2CO)ccc1O | Non-toxic | –
O=C(O)C1=CC[C@@H]2C(C(=O)O)=CO[C@@H](O[C@@H]3O[C@H](CO)[C@@H](O)[C@H](O)[C@H]3O)[C@H]12 [IXOSIDE] | Non-toxic | –
O=c1c(-c2ccc(O)cc2)coc2c([C@@H]3O[C@H](CO)[C@@H](O)[C@H](O)[C@H]3O)c(O)ccc12 [PUERARIN] | Non-toxic | –
O=C(O)[C@H]1O[C@@H](O[C@@H]2[C@@H](O)[C@@H](O)CO[C@H]2c2c(O)cc3oc(-c4ccc(O)c(O)c4)cc(=O)c3c2O)[C@H](O)[C@@H](O)[C@H]1O | Non-toxic | –
COc1ccc([C@@H]2c3cc(OC)c(O)cc3C[C@@H](C)[C@H]2C)cc1O | Non-toxic | –
C[C@@H]1O[C@@H](Oc2ccc(CNC(=S)NCc3ccc(O[C@@H]4O[C@@H](C)[C@H](O)[C@@H](O)[C@H]4O)cc3)cc2)[C@H](O)[C@H](O)[C@H]1O | Non-toxic | –
COc1cc(O)c(C(=O)CC(C)C)c2c1[C@@H]1C[C@H](C(C)C)C=C[C@]1(C)O2 | Non-toxic | –
C[C@@H]1CC[C@]2(C(=O)O)CC[C@]3(C)C(=CC[C@@H]4[C@@]5(C)CC[C@H](O[C@@H]6O[C@H](C(=O)O)[C@@H](O)[C@H](OS(=O)(=O)O)[C@H]6O)[C@@](C)(CO)[C@@H]5CC[C@]43C)[C@@H]2[C@]1(C)O | Non-toxic | –
C[C@](O)(CC(=O)O)CC(=O)OC[C@H]1O[C@@H](OCc2ccccc2)[C@H](O)[C@@H](O)[C@@H]1O | Non-toxic | –
O=C1c2c(O)cc(O[C@@H]3O[C@H](CO)[C@@H](O)[C@H](O)[C@H]3O)cc2O[C@]1(O)Cc1ccc(O)cc1 | Non-toxic | –
CC[C@H](CC[C@@H](C)[C@H]1CC[C@H]2[C@@H]3CC=C4C[C@@H](O[C@@H]5O[C@H](CO)[C@@H](O)[C@H](O)[C@H]5O)CC[C@]4(C)[C@H]3CC[C@]12C)C(C)C [SITOGLUSIDE] | Non-toxic | –
C=C(c1[nH]c2ccccc2c1CN1C/C(=C/C)[C@@H]2CC(=O)c3[nH]c4ccccc4c3C[C@H]1C2C(=O)OC)[C@H]1CCN(C)C/C1=C\C (stereo partly specified) | Non-toxic | Activity (N2a [1]): Active; Significant Efficacy Observed; Activity (N2a [2]): Active; Significant Efficacy Observed; Activity (N2a [3]): Toxic
OC[C@H]1O[C@@H](Oc2c(O)cc(O)cc2[C@@H]2[C@@H](c3ccc(O)cc3)[C@H](c3ccc(O)cc3)[C@H]2c2cc(O)cc(O)c2O[C@@H]2O[C@H](CO)[C@@H](O)[C@H](O)[C@H]2O)[C@H](O)[C@@H](O)[C@@H]1O | Non-toxic | –
O=C1c2c(O)cc(O)cc2O[C@H](c2cc(O)cc(O)c2)[C@H]1O | Non-toxic | –
C[N+](C)(C)[C@H](Cc1c[nH]c2ccccc12)C(=O)[O-] [HYPAPHORINE] | Non-toxic | –
COC(=O)[C@@H](Cc1ccc(O)c(O)c1)OC(=O)/C=C/c1ccc(OC)c(O)c1 | Non-toxic | –
COc1cc2oc(-c3ccc(O)cc3)cc(=O)c2c(O)c1[C@@H]1O[C@H](CO)[C@@H](O)[C@H](O)[C@H]1O[C@@H]1O[C@H](CO)[C@@H](O)[C@H](O)[C@H]1O | Non-toxic | –
C[C@@H]1O[C@@H](OC[C@H]2O[C@@H](Oc3c(-c4ccc(O)cc4)oc4cc(O)cc(O)c4c3=O)[C@H](O)[C@@H](O)[C@@H]2O)[C@H](O)[C@H](O)[C@H]1O [NICOTIFLOROSIDE] | Non-toxic | –
